{
  "source": "patent US20250376522A1",
  "about": "“Targeting Cells with a Combination of CXCR2 Inhibition and CD47 Blockade” (The Board of Trustees of the Leland Stanford Junior …, priority 2022, published 2025)",
  "key": {"[1]": {"target": "T1, CXCR2 (Homo sapiens, UniProt P25025)", "T1 sequence (P25025 1-360)": "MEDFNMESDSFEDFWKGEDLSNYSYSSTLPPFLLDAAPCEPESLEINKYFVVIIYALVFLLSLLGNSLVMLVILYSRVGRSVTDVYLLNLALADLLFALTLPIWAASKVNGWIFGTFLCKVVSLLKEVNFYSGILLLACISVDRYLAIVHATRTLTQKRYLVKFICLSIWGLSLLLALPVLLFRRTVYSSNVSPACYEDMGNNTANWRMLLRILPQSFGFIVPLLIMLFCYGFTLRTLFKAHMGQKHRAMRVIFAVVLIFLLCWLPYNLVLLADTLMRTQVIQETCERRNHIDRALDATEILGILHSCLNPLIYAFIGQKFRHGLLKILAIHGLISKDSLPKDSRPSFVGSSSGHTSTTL", "conditions": "cited from earlier work"}, "[2]": {"test_system": "CXCR2+ G-MDSCs", "assay": "Thioglycolate-induced peritonitis, G-MDSC recruitment to peritoneum (flow cytometry)", "format": "in vivo, mouse", "conditions": "2 mg/kg IP at thioglycolate infusion and 12 hr later; peritoneal cells harvested at 24 h; control and Poly I:C-treated mice", "procedure": "FIGS. 3A-3B. A) Representative flow cytometry plots of CXCR2 expression on peritoneal M-MDSCs and G-MDSCs of control and Poly I:C-treated CSF1R^FIFI-Mx1-Cre mice (n=5 mice). Peritoneal cells were harvested […] after thioglycolate infusion (n=5 mice). B) Representative flow cytometry plots of peritoneal M-MDSCs and G-MDSCs harvested 24 hrs after thioglycolate infusion of control and Poly I:C-treated CSF1R^FI/FI-Mx1-Cre mice (n=5 mice). Mice were either untreated or treated with 2 mg/kg SB225002 (CXCR2 inhibitor) at time of thioglycolate infusion and 12 hrs before harvesting (n=5 mice).\nBlocking G-MDSC recruitment in thioglycolate-induced peritonitis with a CXCR2 inhibitor. The C-X-C chemokine receptor 2 (CXCR2) signaling axis plays a key role in the migration of immunosuppressive MDSCs. To identify whether these subsets of MDSCs in the peritoneal cavity elicited through thioglycolate-induced peritonitis express CXCR2, peritoneal cells were harvested 24 hours after intraperitoneal injection of thioglycolate and were analyzed by flow cytometry (FIG. 3A). […] At the 24 h time point, peritoneal cells were harvested and analyzed by flow cytometry (FIG. 3B).\nFlow cytometry. […] Fluorescence compensations were performed using single-stained UltraComp eBeads (Affymetrix). […] Data was acquired using a FACSAria II cell sorter (BD Biosciences) and analyzed using FlowJo software. […]"}, "[3]": {"test_system": "B16-F10 melanoma", "assay": "B16-F10 melanoma in control and Poly I:C-treated CSF1R Fl/Fl-Mx1-Cre mice treated with CXCR2 inhibitor", "format": "in vivo, mouse", "procedure": "FIGS. 5A-5D. A) CSF1R^FI/FI-Mx1-Cre mice received three intraperitoneal injections of Poly I:C (100 ug) and were rested for one week. 5×10^5 B16-F10 mouse melanoma cells were then subcutaneously engrafted into flanks of control and Poly I:C-treated CSF1R^FIFI-Mx1-Cre mice. Following the day of engraftment, mice were either untreated or treated daily with 2 mg/kg SB225002 (CXCR2 inhibitor). Burden of B16-F10 melanoma tumors in control and Poly I:C-treated CSF1R^FIFI-Mx1-Cre mice treated with or without SB225002. Data are mean±s.e.m. (n=5 mice per group). B) Flow cytometry analysis of M-MDSCs and G-MDSCs in tumors of mice. MDSCs are gated on CD11b+ cells. Data are mean±s.e.m. (n=5 mice per group). C) Flow cytometry analysis of M-MDSCs and G-MDSCs in bone marrow of tumor-bearing mice. MDSCs are gated on CD11b+ cells. Data are mean±s.e.m. (n=5 mice per group). D) Flow cytometry analysis of M-MDSCs and G-MDSCs in the peripheral blood of tumor-bearing mice. MDSCs are gated on CD11b+ cells. Data are mean±s.e.m. (n=5 mice per group).\nTargeting G-MDSCs in B16-F10 melanoma with a CXCR2 inhibitor. To determine whether targeting CXCR2+ G-MDSCs could lead to an anti-tumor response, poly I:C and PBS mice were subcutaneously engrafted with B16-F10 melanoma. The day after engraftment, mice were treated intraperitoneally with PBS or SB225002 six days per week. […] Tumors were harvested and subjected to flow cytometry for immunophenotyping.\nFlow cytometry. Samples were blocked with monoclonal antibody to CD16/32 (TruStain fcX, BioLegend) before staining with antibody panels. Samples were stained for 30 min on ice, and subsequently washed with FACS buffer (PBS with 1% FBS buffer). Fluorescence compensations were performed using single-stained UltraComp eBeads (Affymetrix). The following antibodies were used for FACS analysis: Anti-CD11b (M1/70 BD Biosciences); Anti-F4/80 (BM8 BioLegend); Anti-Ly6G (1A8 BioLegend), Anti-Ly6C (HK1.4 BioLegend); Anti-CXCR2 (SA044G4 BioLegend). SYTOX blue dead cell stain (Invitrogen) was used for dead cell exclusion. Data was acquired using a FACSAria II cell sorter (BD Biosciences) and analyzed using FlowJo software.\nIn vivo tumor experiments and treatments. Mice 6-8 weeks of age were given subcutaneous injection of B16-F10 melanoma cells in PBS into the right flank. Tumor growth was measured by using calipers and volumes were calculated by using the formula: volume= 4/3π×(x/2)2×(y/2), where x is the largest measurable dimension of the tumor and y is the dimension immediately perpendicular to x. Tumor volumes were evaluated using two-way ANOVA in GraphPad Prism. For tumor treatments, mice were given mouse IgG1 isotype control clone MOPC21 (BioXCell), anti-CD47 mAb clone MIAP410 (BioXCell), or SB225002 (ToCris) by intraperitoneal injection."}, "[4]": {"target": "T1, CXCR2", "conditions": "read-out: Kd of IL-8 binding to CXCR2; cited from earlier work"}, "[5]": {"target": "T2, CXCR1 (Homo sapiens, UniProt P25024)", "T2 sequence (P25024 1-350)": "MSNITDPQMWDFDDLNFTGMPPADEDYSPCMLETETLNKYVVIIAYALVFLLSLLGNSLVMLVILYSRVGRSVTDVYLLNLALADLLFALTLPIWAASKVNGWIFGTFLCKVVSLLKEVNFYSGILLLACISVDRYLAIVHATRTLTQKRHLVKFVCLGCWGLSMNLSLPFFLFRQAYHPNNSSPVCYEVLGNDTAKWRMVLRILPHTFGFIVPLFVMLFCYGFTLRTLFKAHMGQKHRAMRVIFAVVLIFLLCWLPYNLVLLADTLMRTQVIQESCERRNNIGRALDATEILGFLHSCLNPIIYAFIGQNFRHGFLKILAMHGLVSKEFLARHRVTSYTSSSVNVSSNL", "conditions": "read-out: Kd of IL-8 binding to CXCR1; cited from earlier work"}},
  "data": [
    {"molecule": "CC[C@@H](Nc1c(Nc2cccc(C(=O)N(C)C)c2O)c(=O)c1=O)c1ccc(C)o1", "note": "[Navaraxin, Navarixin]", "values": [
      {"measurement": "Selective/Pan", "setting": "[1]", "result": "Selective"}
    ]},
    {"molecule": "O=C(Nc1ccc([N+](=O)[O-])cc1O)Nc1ccccc1Br", "note": "[SB225002]", "values": [
      {"measurement": "Selective/Pan", "setting": "[1]", "result": "Selective"},
      {"measurement": "Percentage of G-MDSCs in the peritoneal cavity", "setting": "[2]", "result": "significantly decreased percentage of G-MDSCs"},
      {"measurement": "Tumor progression (burden of B16-F10 melanoma tumors)", "setting": "[3]; 2 mg/kg intraperitoneally from the day after engraftment, especially in mice expressing CSF1R", "result": "significantly decreased tumor progression"},
      {"measurement": "G-MDSCs in bone marrow of tumor-bearing mice", "setting": "[3]; bone marrow, flow cytometry", "result": "significant decrease of G-MDSCs"},
      {"measurement": "G-MDSCs in peripheral blood of tumor-bearing mice", "setting": "[3]; peripheral blood, flow cytometry", "result": "significant decrease of G-MDSCs"},
      {"measurement": "Tumor-infiltrating G-MDSCs", "setting": "[3]; tumors, flow cytometry, gated on CD11b+ cells", "result": "significant decrease in tumor-infiltrating G-MDSCs"}
    ]},
    {"molecule": "O=C(Nc1ccc(F)cc1)c1cnc(SCc2cc(OC(F)(F)F)ccc2B(O)O)nc1", "note": "[SX-682]", "values": [
      {"measurement": "Selective/Pan", "setting": "[1]", "result": "Pan"}
    ]},
    {"molecule": "IL-8: chemokine ligand of CXCR1 and CXCR2", "values": [
      {"measurement": "Kd", "setting": "[4]", "result": "~4", "unit": "nM"},
      {"measurement": "Kd", "setting": "[5]", "result": "~4", "unit": "nM"}
    ]}
  ]
}
